ChEMBL document CHEMBL5247606, “Advances of targeting the YAP/TAZ-TEAD complex in the hippo pathway for the treatment of cancers” (Eur J Med Chem, 2022)

Key:
[1] = target: Transcriptional coactivator YAP1 (Homo sapiens) (UniProt P46937); assay: Inhibition of YAP (unknown origin) phosporylation relative to control; settings: concentration not given here
[2] = target: T1, Serine/threonine-protein kinase LATS1 (Homo sapiens) (UniProt O95835); assay: Inhibition of LATS1 (unknown origin) phosporylation relative to control; settings: dose 10.0 µM
T1 sequence (whole entry): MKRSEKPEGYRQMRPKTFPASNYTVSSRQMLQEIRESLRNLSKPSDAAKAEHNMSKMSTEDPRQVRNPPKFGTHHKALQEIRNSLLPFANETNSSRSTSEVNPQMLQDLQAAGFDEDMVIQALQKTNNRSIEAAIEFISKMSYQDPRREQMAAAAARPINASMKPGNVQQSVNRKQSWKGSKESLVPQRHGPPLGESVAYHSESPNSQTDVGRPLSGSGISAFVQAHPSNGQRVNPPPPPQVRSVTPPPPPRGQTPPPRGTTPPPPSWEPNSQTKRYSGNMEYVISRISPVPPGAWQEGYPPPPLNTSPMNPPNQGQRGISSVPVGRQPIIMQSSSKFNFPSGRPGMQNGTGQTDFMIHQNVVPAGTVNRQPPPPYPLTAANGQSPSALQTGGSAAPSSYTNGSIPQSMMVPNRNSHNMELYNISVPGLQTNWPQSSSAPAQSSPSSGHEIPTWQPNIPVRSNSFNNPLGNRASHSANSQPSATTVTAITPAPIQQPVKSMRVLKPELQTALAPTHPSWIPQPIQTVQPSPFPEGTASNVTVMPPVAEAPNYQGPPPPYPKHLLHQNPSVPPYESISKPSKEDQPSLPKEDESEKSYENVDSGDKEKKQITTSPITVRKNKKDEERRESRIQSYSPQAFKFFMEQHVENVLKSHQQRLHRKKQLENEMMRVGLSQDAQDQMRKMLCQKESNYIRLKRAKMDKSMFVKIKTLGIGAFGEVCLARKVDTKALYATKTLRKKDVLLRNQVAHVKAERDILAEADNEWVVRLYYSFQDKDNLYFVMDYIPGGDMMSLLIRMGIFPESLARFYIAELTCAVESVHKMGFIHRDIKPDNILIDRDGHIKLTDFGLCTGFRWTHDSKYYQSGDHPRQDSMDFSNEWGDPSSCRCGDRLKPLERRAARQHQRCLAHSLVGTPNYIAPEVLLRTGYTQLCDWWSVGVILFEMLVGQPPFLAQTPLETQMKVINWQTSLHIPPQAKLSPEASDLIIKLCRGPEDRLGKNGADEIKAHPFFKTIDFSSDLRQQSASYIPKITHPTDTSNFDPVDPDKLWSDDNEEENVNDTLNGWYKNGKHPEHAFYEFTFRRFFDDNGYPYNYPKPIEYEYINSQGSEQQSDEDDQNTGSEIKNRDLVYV

Sequence of Transcriptional coactivator YAP1 (Homo sapiens) (P46937 whole entry): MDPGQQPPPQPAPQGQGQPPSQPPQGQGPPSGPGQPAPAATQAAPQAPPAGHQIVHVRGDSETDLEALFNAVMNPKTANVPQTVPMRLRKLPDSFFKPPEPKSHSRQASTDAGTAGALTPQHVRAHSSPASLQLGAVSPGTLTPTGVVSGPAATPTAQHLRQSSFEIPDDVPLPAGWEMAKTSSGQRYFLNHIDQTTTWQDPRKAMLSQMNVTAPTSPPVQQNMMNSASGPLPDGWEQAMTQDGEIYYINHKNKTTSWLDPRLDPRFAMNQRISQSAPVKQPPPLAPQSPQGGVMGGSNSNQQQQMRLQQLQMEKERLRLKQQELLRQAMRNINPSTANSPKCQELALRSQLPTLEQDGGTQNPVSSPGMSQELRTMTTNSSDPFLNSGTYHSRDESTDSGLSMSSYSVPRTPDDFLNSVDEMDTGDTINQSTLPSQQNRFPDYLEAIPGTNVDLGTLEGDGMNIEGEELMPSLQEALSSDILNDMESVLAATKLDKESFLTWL

CCOc1cc2ncc(C#N)c(Nc3ccc(OCc4ccccn4)c(Cl)c3)c2cc1NC(=O)/C=C/CN(C)C
inhibition [1]: < 30% | inhibition [2]: < 30%
